# Experimental data: patent US10525110B2, “Methods for inducing partial apoptosis using caspase polypeptides” (Bellicum Pharmaceuticals, Inc., priority 2013, dated 2020)
# Read-outs that look alike come from different tables or passages of the source.
# What was measured:
# human CD3+CD19+ T cells = assay: AP1903 dose-dependent elimination in vivo of iCasp9-transduced T cells in NSG mice; design: species or system immune deficient mice (NSG); settings: i.p., wild-type iCasp9-transduced T cells, 24 hours
# Method: FIG. 65A-B: AP1903 dose-dependent elimination in vivo of T cells transduced with wild-type iCasp9. T cells were transduced with SFG-iCasp9-2A-ΔCD19 retrovirus and injected i.v. into immune deficient mice (NSG). After 24 hours, mice were injected i.p. with AP1903 (0-5 mg/kg). After an additional 24 hours, mice were sacrificed and lymphocytes from the spleen (65A) and peripheral blood (65B) were isolated and analyzed by flow cytometry for the frequency of human CD3^+CD19^+ T cells.
# FIG. 66: AP1903 dose-dependent elimination in vivo of T cells transduced with D330E iCasp9. T cells were transduced with SFG-iCasp9-D330E-2A-ΔCD19 retrovirus and injected i.v. into immune deficient mice (NSG). After 24 hours, mice were injected i.p. with AP1903 (0-5 mg/kg). After an additional 24 hours, mice were sacrificed and lymphocytes from the spleen (A) were isolated and analyzed by flow cytometry for the frequency of human CD3^+CD19^+ T cells.
# [1] = cited from earlier work
# [2] = Phase I study of AP1903 in healthy volunteers; assay type: in vivo; settings: male, human, plasma, intravenous, 0.4 mg/kg; reached within 15-30 min
# Method: FIG. 49(A-B) provides the results of a dose-escalation study in normal male volunteers. FIG. 49A is a line graph and 49B is a chart. Healthy volunteers were infused with the indicated doses of AP1903 and at various time points, serum levels of AP1903 were measured using HPLC analysis.
# In a previous Phase I study of AP1903, 24 healthy volunteers were treated with single doses of AP1903 for Injection at dose levels of 0.01, 0.05, 0.1, 0.5 and 1.0 mg/kg infused IV over 2 hours. […] Iuliucci J D, et al., J Clin Pharmacol. 41: 870-9, 2001.
# cells = assay: AP1903 needed in vitro for effective signaling of cells; assay type: cell-based
# CD3+ΔCD19+ cells = assay: CASPALLO phase 1 trial: AP1903 in patients with GvHD after iCasp9 T cell infusion; assay type: in vivo, human
smiles,measurement,setting,value
"CC[C@H](C(=O)N1CCCC[C@H]1C(=O)O[C@H](CCc1ccc(OC)c(OC)c1)c1cccc(OCC(=O)NCCNC(=O)COc2cccc([C@@H](CCc3ccc(OC)c(OC)c3)OC(=O)[C@@H]3CCCCN3C(=O)[C@@H](CC)c3cc(OC)c(OC)c(OC)c3)c2)c1)c1cc(OC)c(OC)c(OC)c1 (relative stereo) [AP1903, 2-Piperidinecarboxylic acid, 1-[(2S)-1-oxo-2-(3,4,5-trimethoxyphenyl)butyl]-, 1,2-ethanediylbis[imino(2-oxo-2,1-ethanediyl)oxy-3,1-phenylene[(1R)-3-(3,4-dimethoxyphenyl)propylidene]] ester, [2S-[1(R*),2R*[S*[S*[1(R*),2R*]]]]]-(9Cl)]",dose sufficient to eliminate most modified T cells in vivo,human CD3+CD19+ T cells,0.5 mg/kg
same,safety and tolerability in healthy volunteers,"[1]; 0.01 mg/kg to 1.0 mg/kg dose range, listed as AP1903 for Injection",safe and well tolerated at all dose levels
same,relation of plasma levels to dose,[1]; 0.01-1.0 mg/kg,directly proportional to dose
same,plasma level as % of maximal concentration,[1]; 2 hours post-dose,~7%
same,plasma level as % of maximal concentration,[1]; 10 hours post-dose,~1%
same,well-tolerated doses,[1]; Phase I study,up to 1 mg/kg
same,Cmax,[2],0.1 to 1 µM
same,amount needed in vitro for effective signaling of cells,cells,10 to 100 nM
same,effect of a single dose on GvHD-causing and virus specific T cells,"CD3+ΔCD19+ cells; human, in vivo","can reduce or eliminate the subpopulation of T cells causing GvHD, but can spare virus specific CTLs"
same,further reduction of CD3+ΔCD19+ cells,CD3+ΔCD19+ cells; within 24 hours,additional log killing
